Measured values published in PMC8286840, “Identifying SARS-CoV-2 antiviral compounds by screening for small molecule inhibitors of Nsp3 papain-like protease” (Biochemical Journal, 2021).
Where a name gives a salt, the structure may show the parent alone. Read-outs that look alike come from different tables or passages of the source.

Legend:
[1] = biological target: T1, SARS-CoV-2 PLpro (nsp3 1564–1878) (Severe acute respiratory syndrome coronavirus 2, UniProt P0DTD1); assay: biochemical; design: FRET-quenched peptide (Pro3) cleavage by PLpro, 10 min pre-incubation, slope over 20 min, normalised to no-compound control; conditions: low concentration screen, read-out: % of control remaining
[2] = biological target: T1, SARS-CoV-2 PLpro (nsp3 1564–1878); assay: biochemical; design: FRET-quenched peptide (Pro3) cleavage by PLpro, 10 min pre-incubation, slope over 20 min, normalised to no-compound control; conditions: high concentration screen, read-out: % of control remaining

## Nc1ccn([C@H]2CC[C@@H](CO)O2)c(=O)n1 [2',3'-dideoxycytidine]
[1]; Well no.=549
  remaining activity at 1.25 µM: 98.3%
[2]; Well no.=549
  remaining activity at 3.75 µM: 96.6%

## Nc1ncnc2c1ncn2[C@H]1C[C@H](O)[C@@H](CO)O1 [2'-Deoxyadenosine monohydrate]
[1]; Well no.=8885
  remaining activity at 1.25 µM: 95.3%
[2]; Well no.=8885
  remaining activity at 3.75 µM: 90.7%

## Nc1ncnc2c1ncn2[C@H]1C[C@H](O)[C@@H](CO)O1 [2'-Deoxyadenosine]
[1]; Well no.=6691
  remaining activity at 1.25 µM: 106%
[1]; Well no.=7722
  remaining activity at 1.25 µM: 95.5%
[2]; Well no.=6691
  remaining activity at 3.75 µM: 105%
[2]; Well no.=7722
  remaining activity at 3.75 µM: 101%

## Nc1ccn([C@H]2C[C@H](O)[C@@H](CO)O2)c(=O)n1 [2'-Deoxycytidine (hydrochloride)]
[1]; Well no.=7806
  remaining activity at 1.25 µM: 105%
[2]; Well no.=7806
  remaining activity at 3.75 µM: 109%

## Nc1ccn([C@H]2C[C@H](O)[C@@H](CO)O2)c(=O)n1 [2'-Deoxycytidine]
[1]; Well no.=7451
  remaining activity at 1.25 µM: 93.9%
[1]; Well no.=7760
  remaining activity at 1.25 µM: 96.4%
[2]; Well no.=7451
  remaining activity at 3.75 µM: 93.7%
[2]; Well no.=7760
  remaining activity at 3.75 µM: 98.4%

## Nc1nc2c(ncn2[C@H]2C[C@H](O)[C@@H](CO)O2)c(=O)[nH]1 [2'-Deoxyguanosine]
[1]; Well no.=6209
  remaining activity at 1.25 µM: 102%
[1]; Well no.=7772
  remaining activity at 1.25 µM: 99.2%
[2]; Well no.=6209
  remaining activity at 3.75 µM: 97.7%
[2]; Well no.=7772
  remaining activity at 3.75 µM: 101%

## O=c1[nH]cnc2c1ncn2[C@H]1C[C@H](O)[C@@H](CO)O1 [2'-Deoxyinosine]
[1]; Well no.=7497
  remaining activity at 1.25 µM: 106%
[1]; Well no.=7712
  remaining activity at 1.25 µM: 95%
[2]; Well no.=7497
  remaining activity at 3.75 µM: 105%
[2]; Well no.=7712
  remaining activity at 3.75 µM: 96.3%

## O=c1ccn([C@H]2C[C@H](O)[C@@H](CO)O2)c(=O)[nH]1 [2'-Deoxyuridine]
[1]; Well no.=6627
  remaining activity at 1.25 µM: 107%
[1]; Well no.=8893
  remaining activity at 1.25 µM: 103%
[2]; Well no.=6627
  remaining activity at 3.75 µM: 102%
[2]; Well no.=8893
  remaining activity at 3.75 µM: 103%

## c1ccc(-c2ccccn2)nc1 [2,2'-Bipyridyl]
[1]; Well no.=724
  remaining activity at 1.25 µM: 96.8%
[2]; Well no.=724
  remaining activity at 3.75 µM: 95.8%

## O=C(Nc1ccc(S(=O)(=O)Nc2nccs2)cc1)C(c1ccccc1)c1ccccc1 [2,2-diphenyl-N-{4-[(1,3-thiazol-2-ylamino)sulfonyl]phenyl}acetamide]
[1]; Well no.=5558
  remaining activity at 1.25 µM: 92.9%
[2]; Well no.=5558
  remaining activity at 3.75 µM: 96.4%

## CC(=O)/C(C)=N/O [2,3-Butanedione monoxime]
[1]; Well no.=22
  remaining activity at 1.25 µM: 103%
[2]; Well no.=22
  remaining activity at 3.75 µM: 105%

## CC(=O)C(C)=O [2,3-Butanedione]
[1]; Well no.=687
  remaining activity at 1.25 µM: 98.3%
[2]; Well no.=687
  remaining activity at 3.75 µM: 97.2%

## COC1=C(OC)C(=O)c2ccccc2C1=O [2,3-Dimethoxy-1,4-naphthoquinone]
[1]; Well no.=739
  remaining activity at 1.25 µM: 98%
[2]; Well no.=739
  remaining activity at 3.75 µM: 96.9%

## CCCCC[C@H](O)/C=C/[C@@H]1[C@@H](CC(=O)CCC(=O)O)[C@@H](O)C[C@@H]1O [2,3-Dinor-6-keto-prostaglandin F1a]
[1]; Well no.=4527
  remaining activity at 1.25 µM: 93.5%
[2]; Well no.=4527
  remaining activity at 3.75 µM: 97.9%

## COc1cc2c[n+](C)c3c4cc5c(cc4ccc3c2cc1OC)OCO5 [2,3-dimethoxy-12-methyl[1,3]benzodioxolo[5,6-c]phenanthridin-12-ium chloride]
[1]; Well no.=5862
  remaining activity at 1.25 µM: 100%
[2]; Well no.=5862
  remaining activity at 3.75 µM: 98.5%

## O=C(O)c1ccc(O)cc1O [2,4-Dihydroxybenzoic acid]
[1]; Well no.=6781
  remaining activity at 1.25 µM: 102%
[2]; Well no.=6781
  remaining activity at 3.75 µM: 101%

## O=[N+]([O-])c1ccc(O[C@@H]2O[C@H](CO)[C@@H](O)[C@H](O)[C@H]2F)c([N+](=O)[O-])c1 [2,4-Dinitrophenyl 2-fluoro-2-deoxy-beta-D-glucopyranoside]
[1]; Well no.=637
  remaining activity at 1.25 µM: 100%
[2]; Well no.=637
  remaining activity at 3.75 µM: 101%

## COC(=O)/C=C/c1cc(O)ccc1O [2,5-Dihydroxycinnamic acid methyl ester]
[1]; Well no.=495
  remaining activity at 1.25 µM: 103%
[2]; Well no.=495
  remaining activity at 3.75 µM: 106%

## O=C(O)c1ccc(C(=O)O)o1 [2,5-Furandicarboxylic acid]
[1]; Well no.=7461
  remaining activity at 1.25 µM: 98%
[2]; Well no.=7461
  remaining activity at 3.75 µM: 91.7%

## Nc1cc(=O)[nH]c(N)n1 [2,6-Diamino-4-pyrimidinone]
[1]; Well no.=452
  remaining activity at 1.25 µM: 104%
[2]; Well no.=452
  remaining activity at 3.75 µM: 99.9%

## O=C(O)c1c(O)cccc1O [2,6-Dihydroxybenzoic acid]
[1]; Well no.=6921
  remaining activity at 1.25 µM: 108%
[2]; Well no.=6921
  remaining activity at 3.75 µM: 105%

## N=C(N)SCCN [2-(2-Aminoethyl)isothiourea dihydrobromide]
[1]; Well no.=353
  remaining activity at 1.25 µM: 96.2%
[2]; Well no.=353
  remaining activity at 3.75 µM: 97.5%

## Cc1ccccc1C(=O)NCC(=O)O [2-(2-Methylbenzamido)acetic acid]
[1]; Well no.=6725
  remaining activity at 1.25 µM: 103%
[2]; Well no.=6725
  remaining activity at 3.75 µM: 104%

## Fc1ccc(-c2c3cccc(C(F)(F)F)c3nn2Cc2ccc(F)cc2Cl)cc1 [2-(2-chloro-4-fluorobenzyl)-3-(4-fluorophenyl)-7-(trifluoromethyl)-2H-indazole]
[1]; Well no.=6061
  remaining activity at 1.25 µM: 93.7%
[2]; Well no.=6061
  remaining activity at 3.75 µM: 94.4%

## COc1cc2oc(-c3ccc(O)c(O)c3)cc(=O)c2c(O)c1OC [2-(3,4-dihydroxyphenyl)-5-hydroxy-6,7-dimethoxy-4H-chromen-4-one]
[1]; Well no.=5979
  remaining activity at 1.25 µM: 97%
[2]; Well no.=5979
  remaining activity at 3.75 µM: 93.4%

## COc1ccc(N2C(=O)CSC2c2cccc(Br)c2)c(OC)c1 (centres unmarked) [2-(3-bromophenyl)-3-(2,4-dimethoxyphenyl)-1,3-thiazolidin-4-one]
[1]; Well no.=6016
  remaining activity at 1.25 µM: 101%
[2]; Well no.=6016
  remaining activity at 3.75 µM: 98.8%

## COc1ccc(CC(=O)O)cc1 [2-(4-Methoxyphenyl)acetic acid]
[1]; Well no.=6451
  remaining activity at 1.25 µM: 100%
[2]; Well no.=6451
  remaining activity at 3.75 µM: 104%

## O=C(COc1ccc(C(=O)c2ccccc2)cc1)NC1CCN(Cc2ccccc2)CC1 [2-(4-benzoylphenoxy)-N-(1-benzyl-4-piperidinyl)acetamide]
[1]; Well no.=5650
  remaining activity at 1.25 µM: 101%
[2]; Well no.=5650
  remaining activity at 3.75 µM: 98.9%

## CC(=O)NCCOC(=O)[C@H](Oc1cccc(C(F)(F)F)c1)c1ccc(Cl)cc1 [2-(acetylamino)ethyl (2R)-(4-chlorophenyl)[3-(trifluoromethyl)phenoxy]ethanoate]
[1]; Well no.=6055
  remaining activity at 1.25 µM: 100%
[2]; Well no.=6055
  remaining activity at 3.75 µM: 97.1%

## C[N+](C)(C)CCC(=O)c1cccc2ccccc12 [2-(alpha-Naphthoyl)ethyltrimethylammonium iodide]
[1]; Well no.=1051
  remaining activity at 1.25 µM: 96.5%
[2]; Well no.=1051
  remaining activity at 3.75 µM: 103%

## NCC(O)c1ccccc1 (centres unmarked) [2-Amino-1-phenylethanol]
[1]; Well no.=7217
  remaining activity at 1.25 µM: 95.5%
[2]; Well no.=7217
  remaining activity at 3.75 µM: 96.7%

## CCCCC/C=C\C/C=C\C/C=C\C/C=C\CCCC(=O)OC(CO)CO [2-Arachidonoylglycerol]
[1]; Well no.=4505
  remaining activity at 1.25 µM: 94.8%
[2]; Well no.=4505
  remaining activity at 3.75 µM: 88.7%
